molecular target: GST tagged truncated human mutant G2019S LRRK2 (Homo sapiens (Human), UniProt Q5S007, G2019S); assay: LRRK2 Km ATP LanthaScreen Assay; format: biochemical; conditions: G2019S LRRK2, 134 μM ATP (Km ATP), mean values
How it was run: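 Enzyme (GST-tagged, truncated) was preincubated with compound for 15 min at RT in 50 mM Tris pH 8.5, 10 mM MgCl2, 0.01% Brij-35, 1 mM EGTA, 2 mM DTT and 0.05 mM orthovanadate. Fluorescein-LRRKtide and 134 μM ATP (Km) were then added for 90 min. EDTA and Tb-anti-pERM antibody stopped the reaction; the TR-FRET 520/495 ratio gave 4-parameter IC50s, reported as mean pIC50.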

Chain of GST tagged truncated human mutant G2019S LRRK2 (Q5S007 970-2527 G2019S): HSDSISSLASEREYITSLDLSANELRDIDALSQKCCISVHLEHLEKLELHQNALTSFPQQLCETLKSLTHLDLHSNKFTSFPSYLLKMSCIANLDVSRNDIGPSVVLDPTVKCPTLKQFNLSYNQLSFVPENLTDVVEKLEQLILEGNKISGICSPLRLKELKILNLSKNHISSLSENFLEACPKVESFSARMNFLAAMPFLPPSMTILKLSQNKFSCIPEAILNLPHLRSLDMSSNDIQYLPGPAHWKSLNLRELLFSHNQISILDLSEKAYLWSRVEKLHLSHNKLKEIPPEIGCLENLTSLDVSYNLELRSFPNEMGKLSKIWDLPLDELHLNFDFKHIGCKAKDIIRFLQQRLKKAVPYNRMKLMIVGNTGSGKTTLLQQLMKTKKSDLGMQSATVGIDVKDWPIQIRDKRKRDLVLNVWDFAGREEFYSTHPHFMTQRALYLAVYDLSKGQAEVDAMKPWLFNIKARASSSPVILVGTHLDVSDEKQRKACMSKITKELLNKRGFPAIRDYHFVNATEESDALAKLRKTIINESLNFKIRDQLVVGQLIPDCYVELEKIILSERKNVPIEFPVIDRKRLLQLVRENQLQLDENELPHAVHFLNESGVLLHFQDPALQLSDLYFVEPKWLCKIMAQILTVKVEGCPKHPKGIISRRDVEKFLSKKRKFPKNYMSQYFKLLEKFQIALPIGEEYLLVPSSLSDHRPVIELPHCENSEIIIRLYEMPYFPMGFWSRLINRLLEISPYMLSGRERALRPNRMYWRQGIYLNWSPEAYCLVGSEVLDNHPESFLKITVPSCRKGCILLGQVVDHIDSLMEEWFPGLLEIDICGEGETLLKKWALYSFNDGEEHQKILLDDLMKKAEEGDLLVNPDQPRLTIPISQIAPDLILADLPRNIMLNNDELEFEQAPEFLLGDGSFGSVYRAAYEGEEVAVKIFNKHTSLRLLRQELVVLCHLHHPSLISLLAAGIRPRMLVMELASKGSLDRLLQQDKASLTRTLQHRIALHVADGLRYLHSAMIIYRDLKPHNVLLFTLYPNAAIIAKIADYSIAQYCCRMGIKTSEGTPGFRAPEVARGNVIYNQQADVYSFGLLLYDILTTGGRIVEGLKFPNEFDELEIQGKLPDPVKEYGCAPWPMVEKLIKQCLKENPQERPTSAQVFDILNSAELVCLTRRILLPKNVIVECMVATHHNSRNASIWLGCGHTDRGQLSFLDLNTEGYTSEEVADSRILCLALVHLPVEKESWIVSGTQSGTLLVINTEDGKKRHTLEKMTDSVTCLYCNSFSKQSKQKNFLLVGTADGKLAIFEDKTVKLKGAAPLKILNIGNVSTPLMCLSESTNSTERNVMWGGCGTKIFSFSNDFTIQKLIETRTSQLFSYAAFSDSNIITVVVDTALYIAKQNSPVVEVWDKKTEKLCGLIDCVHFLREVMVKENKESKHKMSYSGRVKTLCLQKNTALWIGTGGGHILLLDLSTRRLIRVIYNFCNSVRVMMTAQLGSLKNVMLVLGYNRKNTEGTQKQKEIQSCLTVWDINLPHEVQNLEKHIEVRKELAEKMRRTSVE

| SMILES | LRRK2 pIC50 |
| --- | --- |
| COC1CC(Cn2ncc(Nc3ncc4cc(Cl)c(C5CCN(C6COC6)CC5)cc4n3)c2Cl)C1 (stereo not drawn) [Ex-8.17, 6-chloro-N-{5-chloro-1-[(3-methoxycyclobutyl)methyl]-1H-pyrazol-4-yl}-7-[1-(oxetan-3-yl)piperidin-4-yl]quinazolin-2-amine] | >9.20 |
| Cc1cc2cnc(Nc3cnn(C4CC4)c3C)nc2cc1C1CCN([C@@]2(C)COC[C@H]2O)CC1 (single isomer, unassigned) [Ex-2.38, (3S,4S) or (3R,4R) 4-(4-{2-[(1-cyclopropyl-5-methyl-1H-pyrazol-4-yl)amino]-6-methylquinazolin-7-yl}piperidin-1-yl)-4-methyloxolan-3-ol] | >9.20 |
| Cc1cc2cnc(Nc3cnn(C4CC4)c3Cl)nc2cc1C1CCN(C2COC2)CC1 [Ex-4.84, N-(5-chloro-1-cyclopropyl-1H-pyrazol-4-yl)-6-methyl-7-[1-(oxetan-3-yl)piperidin-4-yl]quinazolin-2-amine] | 9.01 |
| Cn1ncc(Nc2ncc3cc(Cl)c([C@@H]4CCN([C@@]5(C)COC[C@H]5O)C[C@H]4F)cc3n2)c1Cl (single isomer, unassigned) [Ex-4.238, (3S,4S)(3S,4S) or (3S,4S)(3R,4R) or (3R,4R)(3S,4S) or (3R,4R)(3R,4R) 4-(4-{6-chloro-2-[(5-chloro-1-methyl-1H-pyrazol-4-yl)amino]quinazolin-7-yl}-3-fluoropiperidin-1-yl)-4-methyloxolan-3-ol] | 7.40 |
| CC1(O)CCC(c2cc3nc(Nc4cnn(C5CC5)c4Cl)ncc3cc2Cl)CC1 (stereo not drawn) [Ex-1.17, cis-or trans-4-(6-chloro-2-((5-chloro-1-cyclopropyl-1H-pyrazol-4-yl)amino)quinazolin-7-yl)-1-methylcyclohexan-1-ol] | 8.58 |
| CC(C)(O)Cn1ncc(Nc2ncc3cc(Cl)c([C@@H]4CCN(C5COC5)C[C@H]4F)cc3n2)c1Cl (single isomer, unassigned) [Ex-4.43, (3S,4S) or (3R,4R) 1-[5-chloro-4-({6-chloro-7-[3-fluoro-1-(oxetan-3-yl)piperidin-4-yl]quinazolin-2-yl}amino)-1H-pyrazol-1-yl]-2-methylpropan-2-ol] | 9.16 |
| Cc1cc2cnc(Nc3cnn(C4CC4(F)F)c3C)nc2cc1[C@@H]1CCN([C@@H]2COC[C@@H]2O)C[C@H]1F (single isomer, unassigned) [Ex-4.144, (R)(3S,4S)(3S,4S) or (R)(3S,4S)(3R,4R) or (R)(3R,4R)(3S,4S) or (R)(3R,4R)(3R,4R) or (S)(3S,4S)(3S,4S) or (S)(3S,4S)(3R,4R) or (S)(3R,4R)(3S,4S) or (S)(3R,4R)(3R,4R) 4-[4-(2-{[1-(2,2-difluorocyclopropyl)-5-methyl-1H-pyrazol-4-yl]amino}-6-methylquinazolin-7-yl)-3-fluoropiperidin-1-yl]oxolan-3-ol] | 8.68 |
| Cc1cc2cnc(Nc3cnn(C)c3Cl)nc2cc1[C@@H]1CCN([C@H]2COC[C@H]2O)C[C@H]1F (single isomer, unassigned) [Ex-4.260, (3S,4S)(3S,4S) or (3S,4S)(3R,4R) or (3R,4R)(3S,4S) or (3R,4R)(3R,4R) 4-(4-(2-((5-chloro-1-methyl-1H-pyrazol-4-yl)amino)-6-methylquinazolin-7-yl)-3-fluoropiperidin-1-yl)tetrahydrofuran-3-ol] | 8.00 |
| Cc1cc2cnc(Nc3cnn(C4CC4)c3Cl)nc2cc1C1CCC(C)(O)CC1 (stereo not drawn) [Ex-2.64, cis- or trans-4-{2-[(5-chloro-1-cyclopropyl-1H-pyrazol-4-yl)amino]-6-methylquinazolin-7-yl}-1-methylcyclohexan-1-ol] | 9.02 |
| [2H]C([2H])([2H])n1ncc(Nc2ncc3cc(Cl)c(C4CCN([C@]5(C)COC[C@@H]5O)CC4)cc3n2)c1Cl (single isomer, unassigned) [Ex-1.27, (3S,4S) or (3R,4R)-4-(4-(6-chloro-2-((5-chloro-1-(methyl-d3)-1H-pyrazol-4-yl)amino)quinazolin-7-yl)piperidin-1-yl)-4-methyltetrahydrofuran-3-ol] | >9.20 |
| CC1(n2ncc(Nc3ncc4cc(Cl)c([C@H]5CCN(C6COC6)C[C@@H]5F)cc4n3)c2Cl)CC1 (single isomer, unassigned) [Ex-4.28, (3S,4S) or (3R,4R) 6-chloro-N-[5-chloro-1-(1-methylcyclopropyl)-1H-pyrazol-4-yl]-7-[3-fluoro-1-(oxetan-3-yl)piperidin-4-yl]quinazolin-2-amine] | >9.20 |
| CC1(N2CCC(n3ncc(Nc4ncc5cc(Cl)c(C6CC6(F)F)cc5n4)c3Cl)C(F)C2)COC1 (single isomer, unassigned) [Ex-3.1, (3R,4R)(7S) or (3R,4R)(7R) or (3S,4S)(7S) or (3S,4S)(7R) 6-chloro-N-(5-chloro-1-(3-fluoro-1-(3-methyloxetan-3-yl)piperidin-4-yl)-1H-pyrazol-4-yl)-7-(2,2-difluorocyclopropyl)quinazolin-2-amine] | 7.54 |
| Cc1c(Nc2ncc3cc(Cl)c(C4CCN(C[C@@H](O)c5cc(F)cc(F)c5)CC4)cc3n2)cnn1C1CC1 [Ex-4.197, (1S)-2-(4-{6-chloro-2-[(1-cyclopropyl-5-methyl-1H-pyrazol-4-yl)amino]quinazolin-7-yl}piperidin-1-yl)-1-(3,5-difluorophenyl)ethan-1-ol] | 8.76 |
| Cc1c(Nc2ncc3cc(Cl)c(C4CCC(C)(O)CC4)cc3n2)cnn1C1CC1 (stereo not drawn) [Ex-2.63, cis- or trans-4-{6-chloro-2-[(1-cyclopropyl-5-methyl-1H-pyrazol-4-yl)amino]quinazolin-7-yl}-1-methylcyclohexan-1-ol] | 8.92 |
| Cc1cc(Nc2ncc3cc(Cl)c(C4CCN([C@H]5COC[C@H]5O)CC4)cc3n2)sn1 (single isomer, unassigned) [Ex-2.55, (3S,4S) or (3R,4R)4-(4-{6-chloro-2-[(3-methyl-l,2-thiazol-5-yl)amino]quinazolin-7-yl}piperidin-1-yl)oxolan-3-ol] | >9.20 |
| Cn1ncc(Nc2ncc3cc(Cl)c([C@H]4CCN([C@H]5COC[C@H]5O)C[C@@H]4F)cc3n2)c1C1CC1 (single isomer, unassigned) [Ex-4.242, (3S,4S)(3S,4S) or (3S,4S)(3R,4R) or (3R,4R)(3S,4S) or (3R,4R)(3R,4R) 4-(4-{6-chloro-2-[(5-cyclopropyl-1-methyl-1H-pyrazol-4-yl)amino]quinazolin-7-yl}-3-fluoropiperidin-1-yl)oxolan-3-ol] | 7.67 |
| C[C@@]1(N2CC[C@@H](c3cc4nc(Nc5cnn(C6CC6(F)F)c5Cl)ncc4cc3Cl)[C@H](F)C2)COC[C@@H]1O (single isomer, unassigned) [Ex-4.230, (R)(3S,4S)(3S,4S) or (R)(3S,4S)(3R,4R) or (R)(3R,4R)(3S,4S) or (R)(3R,4R)(3R,4R) or (S)(3S,4S)(3S,4S) or (S)(3S,4S)(3R,4R) or (S)(3R,4R)(3S,4S) or (S)(3R,4R)(3R,4R) 4-(4-(6-chloro-2-((5-chloro-1-(2,2-difluorocyclopropyl)-1H-pyrazol-4-yl)amino)quinazolin-7-yl)-3-fluoropiperidin-1-yl)-4-methyltetrahydrofuran-3-ol] | 9.13 |
| FC(F)n1cc(Nc2ncc3cc(Cl)c(C4CCN(C5COC5)CC4)cc3n2)cn1 [Ex-4.18, 6-chloro-N-[1-(difluoromethyl)-1H-pyrazol-4-yl]-7-[1-(oxetan-3-yl)piperidin-4-yl]quinazolin-2-amine] | 9.16 |
| Cc1c(Nc2ncc3cc(Cl)c(C4CCN([C@H]5COC[C@H]5O)CC4)cc3n2)cnn1C12CC(C1)C2 (single isomer, unassigned) [Ex-2.27, (3S,4S) or (3R,4R) 4-[4-(2-{[1-(bicyclo[1.1.1]pentan-1-yl)-5-methyl-1H-pyrazol-4-yl]amino}-6-chloroquinazolin-7-yl)piperidin-1-yl]oxolan-3-ol] | 8.87 |

same assay, conditions: G2019S LRRK2, 134 μM ATP (Km ATP), mean values; read-out: LRRK2 pIC50 (converted)

| SMILES | IC50 |
| --- | --- |
| C[C@@]1(N2CCC(c3cc4nc(Nc5cnn(C6CC6)c5Cl)ncc4cc3Cl)CC2)COC[C@@H]1O (single isomer, unassigned) [Ex-1.8, (3R,4R)- or (3S,4S)-4-(4-(6-chloro-2-((5-chloro-1-cyclopropyl-1H-pyrazol-4-yl)amino)quinazolin-7-yl)piperidin-1-yl)-4-methyltetrahydrofuran-3-ol] | 1.55 nM |
| C[C@H]1CC(c2cc3nc(Nc4cnn(C5CC5)c4Cl)ncc3cc2Cl)CCN1C1COC1 (single isomer, unassigned) [Ex-1.12, (S) or (R) 6-chloro-N-(5-chloro-1-cyclopropyl-1H-pyrazol-4-yl)-7-(2-methyl-1-(oxetan-3-yl)piperidin-4-yl)quinazolin-2-amine] | 0.741 nM |
| CC(C)(O)Cn1ncc(Nc2ncc3cc(Cl)c([C@@H]4CCN(C5(C)COC5)C[C@H]4F)cc3n2)c1Cl (single isomer, unassigned) [Ex-2.2, (3S,4S) or (3R,4R) 1-(5-chloro-4-((6-chloro-7-(3-fluoro-1-(3-methyloxetan-3-yl)piperidin-4-yl)quinazolin-2-yl)amino)-1H-pyrazol-1-yl)-2-methylpropan-2-ol] | < 0.631 nM |
| Cc1cc2cnc(Nc3cnn(C4CC4(F)F)c3Cl)nc2cc1C1CCN([C@H]2COC[C@H]2O)CC1 (single isomer, unassigned) [Ex-2.33, (R)(3S,4S) or (R)(3R,4R) or (S)(3S,4S) or (S)(3R,4R) 4-[4-(2-{[5-chloro-1-(2,2-difluorocyclopropyl)-1H-pyrazol-4-yl]amino}-6-methylquinazolin-7-yl)piperidin-1-yl]oxolan-3-ol] | < 0.631 nM |
| CCN1CC[C@@H](c2cc3nc(Nc4cnn(CC(C)(C)O)c4Cl)ncc3cc2Cl)[C@H](F)C1 (single isomer, unassigned) [Ex-4.5, (3S,4S) or (3R,4R) 1-(5-chloro-4-((6-chloro-7-(1-ethyl-3-fluoropiperidin-4-yl)quinazolin-2-yl)amino)-1H-pyrazol-1-yl)-2-methylpropan-2-ol] | 1.62 nM |

Source: patent publication US12540131B2 (Merck Sharp & Dohme LLC, priority 2019, dated 2026)
